From US11773368B2, “Culture method for differentiating primordial germ cells into functionally mature oocytes” (TOKYO UNIVERSITY OF AGRICULTURE, priority 2015, dated 2023)

What was measured:
[1] = system: ovaries cultured for 17 days; assay: Histological analysis of ovary obtained by in vitro culture (H&E, laminin immunofluorescence); type: cell-based, mouse
Experimental: The ovaries cultured for 17 days in (i) FBS group or (v) FBS/10 μM ICI group and the ovaries from female mouse at 10 days after birth were processed for hematoxylin-eosin staining and laminin immunofluorescence staining.
Concretely, the ovaries were fixed for 4 hours at room temperature in 1% paraformaldehyde (PFA)/0.1% glutaraldehyde in 0.05 M phosphate buffer. For H&E staining, the ovaries were embedded in paraffin blocks after a routine protocol, and 4-μm-thick serial sections were prepared. After H&E staining, sections were observed under an IX71 microscope (Olympus). For laminin immunofluorescence staining, ovaries were cut into four to eight pieces, and the tissue sections were incubated for 3 days at 4° C. with an anti-laminin rabbit polyclonal antibody (Abcam) at a dilution of 1:100. Then the tissue sections of the ovaries were incubated for 3 days at 4° C. with an Alexa Fluor 488-conjugated goat anti-rabbit IgG at a dilution of 1:500 (Molecular Probes, Thermo Fisher Scientific Inc.). The obtained tissue sections of the ovaries were further processed for 4′,6-diamidino-2-phenylindole (DAPI; Life Technologies) staining. The tissue sections of the ovaries were observed under Zeiss LSM 710 confocal microscope.

[2] = system: cumulus-oocyte complexes (COCs); assay: In vitro maturation to egg; type: cell-based, mouse
Experimental: The cumulus-oocyte complexes (COCs) were collected from the secondary follicles obtained by “3. In vitro growth culture of secondary follicle” described above. Then, COCs were cultured with α-MEM containing 5% FBS, 0.1 IU/mL FSH, 1.2 IU/mL chorionic gonadotropin (Gonatropin, ASKA Pharmaceutical), and […] (Gibco, Thermo Fisher Scientific Inc.) for 17 hours. Control COCs were collected from adult female mice 44 hours after the injection with equine CG (Serotropin; ASKA Pharmaceutical). The obtained COCs obtained from the adult female mice, in vivo-derived COCs, were cultured with α-MEM containing 5% FBS, 0.1 IU/mL FSH, 1.2 IU/mL chorionic gonadotropin, and 4 ng/mL epidermal growth factor in the same way to in vitro-derived COCs. As a result of in vitro maturation, in (ii) SPS group, (iv) FBS/SPS group, and (v) FBS/ICI group, 77 to 95% oocytes released the first polar body after 17 hours and became MII oocytes (FIGS. 11b and c).

C[C@]12CC[C@@H]3c4ccc(O)cc4C[C@@H](CCCCCCCCC[S+]([O-])CCCC(F)(F)C(F)(F)F)[C@H]3[C@@H]1CC[C@@H]2O (stereo partly drawn) [ICI, 7α, 17β-[9-([4,4,5,5,5-pentafluoropentyl]sulfinyl)nonyl]estra-1,3,5(10)-triene-3,17-diol]
laminin localization (immunofluorescence) ([1]; (v) FBS/10 μM ICI group, day 17): laminin is circularly localized around the follicle | multioocyte follicle (multiple oocytes in one follicle) ([1]; (v) FBS/ICI group, FIG. 5b): very few | No. of oocytes matured into MII, proportion to the number of collected follicles ([2]; FBS/1 μM ICI group (ICI day 5-11)): 50.1% | No. of oocytes matured into MII ([2]; FBS/1 μM ICI group (ICI day 5-11), 19 cultured gonads): 321 | No. of oocytes matured into MII, proportion to the number of collected follicles ([2]; FBS/5 μM ICI group (ICI day 5-11)): 53.8% | No. of oocytes matured into MII ([2]; FBS/5 μM ICI group (ICI day 5-11), 6 cultured gonads): 168 | No. of oocytes matured into MII, proportion to the number of collected follicles ([2]; FBS/10 μM ICI group (ICI day 5-11)): 50.7% | No. of oocytes matured into MII ([2]; FBS/10 μM ICI group (ICI day 5-11), 6 cultured gonads): 256 | No. of oocytes matured into MII, proportion to the number of collected follicles ([2]; Vitrification FBS/1 μM ICI (vitrified-warmed gonads)): 64.9% | No. of oocytes matured into MII ([2]; Vitrification FBS/1 μM ICI (vitrified-warmed gonads), 4 cultured gonads): 37
